PubChem BioAssay AID248 (DTP/NCI, 2004)
Several values for one entry are separate records, joined by “and”; a condition that tells them apart may be missing. Identical values can stand only once. Toxic doses and inconclusive results are not listed.

Test system: L1210 leukemia ip in BDF1 mice, survival T/C
Test: NCI In Vivo Anticancer Drug Screen. Data for tumor model L1210 Leukemia (intraperitoneal) in B6D2F1 (BDF1) mice
Conditions: endpoint: mean survival time, higher = longer survival
Method in brief: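 Tumor was transplanted into mice, which were then dosed with test compound or vehicle alone. Survival was recorded for each group, and the treated figure was expressed relative to the control figure.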

[1] = dose: 75.0 mg/kg/injection, schedule: Q01DX001 (ip), vehicle: other
[2] = dose: 75.0 mg/kg/injection, schedule: Q01DX009 (ip), vehicle: saline with Tween-80
[3] = dose: 100.0 mg/kg/injection, schedule: Q01DX009 (ip), vehicle: Klucel (hydroxypropylcellulose) (HPC)
[4] = dose: 200.0 mg/kg/injection, schedule: Q01DX009 (ip), vehicle: Klucel (hydroxypropylcellulose) (HPC)
[5] = dose: 100.0 mg/kg/injection, schedule: Q01DX001 (ip), vehicle: carboxymethylcellulose (CMC)
[6] = dose: 200.0 mg/kg/injection, schedule: Q01DX001 (ip), vehicle: carboxymethylcellulose (CMC)
[7] = dose: 400.0 mg/kg/injection, schedule: Q01DX001 (ip), vehicle: carboxymethylcellulose (CMC)
[8] = dose: 200.0 mg/kg/injection, schedule: Q04DX002 (ip), vehicle: Klucel (hydroxypropylcellulose) (HPC)
[9] = dose: 400.0 mg/kg/injection, schedule: Q04DX002 (ip), vehicle: Klucel (hydroxypropylcellulose) (HPC)
[10] = dose: 100.0 mg/kg/injection, schedule: Q04DX002 (ip), vehicle: saline with Tween-80
[11] = dose: 200.0 mg/kg/injection, schedule: Q04DX002 (ip), vehicle: saline with Tween-80
[12] = dose: 400.0 mg/kg/injection, schedule: Q04DX002 (ip), vehicle: saline with Tween-80

Compound: COc1cc(NS(C)(=O)=O)ccc1Nc1c2ccc([N+](=O)[O-])cc2nc2c(C)cccc12
- T/C (dose: 0.12 mg/kg/injection, schedule: Q01DX009 (ip), vehicle: saline): 122 % of control
- T/C (dose: 0.37 mg/kg/injection, schedule: Q04DX003 (ip), vehicle: saline): 113 % of control
- T/C (dose: 0.62 mg/kg/injection, schedule: Q01DX009 (ip), vehicle: saline): 112 % of control
- T/C (dose: 0.75 mg/kg/injection, schedule: Q04DX003 (ip), vehicle: saline): 161 % of control
- T/C (dose: 1.0 mg/kg/injection, schedule: Q01DX009 (ip), vehicle: saline): 166 % of control
- T/C (dose: 1.25 mg/kg/injection, schedule: Q01DX009 (ip), vehicle: saline): 121 % of control
- T/C (dose: 1.5 mg/kg/injection, schedule: Q04DX003 (ip), vehicle: saline): 187 % of control
- T/C (dose: 2.5 mg/kg/injection, schedule: Q01DX009 (ip), vehicle: saline): 275 % of control
- T/C (dose: 5.0 mg/kg/injection, schedule: Q01DX009 (ip), vehicle: saline): 111 % of control and 277 % of control
- T/C (dose: 5.0 mg/kg/injection, schedule: Q01DX009 (sc), vehicle: saline): 165 % of control
- T/C (dose: 7.5 mg/kg/injection, schedule: Q04DX003 (ip), vehicle: saline): 218 % of control
- T/C (dose: 15.0 mg/kg/injection, schedule: Q01DX001 (ip), vehicle: other): 162 % of control
- T/C (dose: 15.0 mg/kg/injection, schedule: Q01DX009 (ip), vehicle: saline): 103 % of control
- T/C (dose: 15.0 mg/kg/injection, schedule: Q04DX003 (ip), vehicle: saline): 162 % of control
- T/C (dose: 20.0 mg/kg/injection, schedule: Q01DX009 (ip), vehicle: saline): 86 % of control
- T/C (dose: 33.0 mg/kg/injection, schedule: Q01DX001 (ip), vehicle: other): 180 % of control
- T/C (dose: 50.0 mg/kg/injection, schedule: Q01DX001 (ip), vehicle: other): 177 % of control
- T/C [1]: 159 % of control
- T/C (dose: 75.0 mg/kg/injection, schedule: Q01DX001 (ip), vehicle: saline): 203 % of control
- T/C (dose: 113.0 mg/kg/injection, schedule: Q01DX001 (ip), vehicle: other): 173 % of control
- T/C (dose: 150.0 mg/kg/injection, schedule: Q01DX001 (ip), vehicle: saline): 98 % of control

Compound: CC(=O)Nc1cccc2cccnc12
- T/C (dose: 12.5 mg/kg/injection, schedule: Q01DX009 (ip), vehicle: saline with Tween-80): 92 % of control
- T/C (dose: 25.0 mg/kg/injection, schedule: Q01DX009 (ip), vehicle: saline with Tween-80): 95 % of control
- T/C (dose: 50.0 mg/kg/injection, schedule: Q01DX009 (ip), vehicle: saline with Tween-80): 90 % of control
- T/C [1]: 104 % of control
- T/C (dose: 75.0 mg/kg/injection, schedule: Q01DX009 (ip), vehicle: other): 98 % of control
- T/C [2]: 87 % of control
- T/C [3]: 90 % of control
- T/C (dose: 100.0 mg/kg/injection, schedule: Q01DX009 (ip), vehicle: saline): 93 % of control
- T/C (dose: 100.0 mg/kg/injection, schedule: Q04DX003 (ip), vehicle: saline with Tween-80): 107 % of control
- T/C (dose: 100.0 mg/kg/injection, schedule: Q04DX003 (ip), vehicle: saline): 108 % of control
- T/C (dose: 150.0 mg/kg/injection, schedule: Q01DX001 (ip), vehicle: other): 103 % of control
- T/C [4]: 93 % of control
- T/C (dose: 200.0 mg/kg/injection, schedule: Q01DX009 (ip), vehicle: saline): 95 % of control
- T/C (dose: 200.0 mg/kg/injection, schedule: Q04DX003 (ip), vehicle: saline): 106 % of control
- T/C (dose: 300.0 mg/kg/injection, schedule: Q01DX001 (ip), vehicle: other): 94 % of control
- T/C (dose: 400.0 mg/kg/injection, schedule: Q04DX003 (ip), vehicle: saline): 89 % of control

Compound: CC(CO)(CO)N=Cc1cc([N+](=O)[O-])ccc1O
- T/C [5]: 98 % of control
- T/C [6]: 98 % of control
- T/C [7]: 98 % of control

Compound: CCCn1c(=O)cc(C)c2ccccc21
- T/C (dose: 100.0 mg/kg/injection, schedule: Q01DX001 (ip), vehicle: other): 105 % of control
- T/C (dose: 200.0 mg/kg/injection, schedule: Q01DX001 (ip), vehicle: other): 90 % of control
- T/C (dose: 400.0 mg/kg/injection, schedule: Q01DX001 (ip), vehicle: other): 91 % of control

Compound: CN(C)CCCn1c2nc(=O)[nH]c(=O)c-2nc2cc(Cl)c(Cl)cc21
- T/C (dose: 4.0 mg/kg/injection, schedule: Q01DX Z (ip), vehicle: methylcellulose (MC)): 117 % of control

Compound: COC(=O)/C=C\C=C\C(=O)OC
- T/C (dose: 50.0 mg/kg/injection, schedule: Q01DX001 (ip), vehicle: carboxymethylcellulose (CMC)): 95 % of control
- T/C [5]: 94 % of control
- T/C [6]: 98 % of control
- T/C [7]: 98 % of control

Compound: Oc1ccccc1/C=N/c1ccccn1
- T/C (dose: 25.0 mg/kg/injection, schedule: Q01DX009 (ip), vehicle: Klucel (hydroxypropylcellulose) (HPC)): 106 % of control
- T/C (dose: 50.0 mg/kg/injection, schedule: Q01DX009 (ip), vehicle: Klucel (hydroxypropylcellulose) (HPC)): 97 % of control

Compound: CN(CCC#N)c1ccc(-c2cc(C(=O)O)c3cc4ccccc4cc3n2)cc1
- T/C [8]: 110 % of control
- T/C [9]: 95 % of control

Compound: CSc1nc(C)c(C)[n+](C)n1
- T/C (dose: 75.0 mg/kg/injection, schedule: Q01DX001 (ip), vehicle: saline with Tween-80): 115 % of control
- T/C (dose: 150.0 mg/kg/injection, schedule: Q01DX001 (ip), vehicle: saline with Tween-80): 117 % of control

Compound: C/C(=N\N=C(/C)c1ccc(Cl)cc1)c1ccc(Cl)cc1
- T/C (dose: 100.0 mg/kg/injection, schedule: Q01DX001 (ip), vehicle: Klucel (hydroxypropylcellulose) (HPC)): 87 % of control
- T/C [3]: 89 % of control and 95 % of control
- T/C (dose: 100.0 mg/kg/injection, schedule: Q04DX003 (ip), vehicle: Klucel (hydroxypropylcellulose) (HPC)): 89 % of control and 96 % of control
- T/C (dose: 200.0 mg/kg/injection, schedule: Q01DX001 (ip), vehicle: Klucel (hydroxypropylcellulose) (HPC)): 87 % of control
- T/C [4]: 86 % of control and 95 % of control
- T/C (dose: 200.0 mg/kg/injection, schedule: Q04DX003 (ip), vehicle: Klucel (hydroxypropylcellulose) (HPC)): 89 % of control and 102 % of control
- T/C (dose: 400.0 mg/kg/injection, schedule: Q01DX001 (ip), vehicle: Klucel (hydroxypropylcellulose) (HPC)): 97 % of control
- T/C (dose: 400.0 mg/kg/injection, schedule: Q01DX009 (ip), vehicle: Klucel (hydroxypropylcellulose) (HPC)): 94 % of control
- T/C (dose: 400.0 mg/kg/injection, schedule: Q04DX003 (ip), vehicle: Klucel (hydroxypropylcellulose) (HPC)): 98 % of control and 93 % of control

Compound: C#CC1(NC(=O)NC(C)(C)C)CCCCC1
- T/C [10]: 97 % of control
- T/C [11]: 97 % of control
- T/C [12]: 97 % of control

Compound: CC(C)CCOC(=O)Nc1cccc(Cl)c1
- T/C [2]: 113 % of control
- T/C [10]: 93 % of control
- T/C (dose: 150.0 mg/kg/injection, schedule: Q01DX009 (ip), vehicle: saline with Tween-80): 103 % of control
- T/C [11]: 86 % of control
- T/C (dose: 300.0 mg/kg/injection, schedule: Q01DX009 (ip), vehicle: saline with Tween-80): 98 % of control
- T/C [12]: 89 % of control

Compound: Nc1cc(S(=O)(=O)O)cc2ccccc12
- T/C (dose: 100.0 mg/kg/injection, schedule: Q01DX001 (ip), vehicle: saline): 92 % of control
- T/C (dose: 200.0 mg/kg/injection, schedule: Q01DX001 (ip), vehicle: saline): 92 % of control
- T/C (dose: 400.0 mg/kg/injection, schedule: Q01DX001 (ip), vehicle: saline): 87 % of control

Compound: O=C(CN1CCOCC1)Nc1ccc(-c2ccc(NC(=O)CN3CCOCC3)cc2)cc1
- T/C [5]: 92 % of control
- T/C [6]: 97 % of control
- T/C [7]: 92 % of control

Compound: COc1ccc(NC(=O)NCc2ccc(C)c(C)c2)cc1
- T/C (dose: 100.0 mg/kg/injection, schedule: Q04DX002 (ip), vehicle: Klucel (hydroxypropylcellulose) (HPC)): 118 % of control
- T/C [8]: 96 % of control
- T/C [9]: 104 % of control

Compound: COC(=O)Cc1oc(=O)n(-c2ccccc2)c(=O)c1C(=O)OC
- T/C (dose: 12.5 mg/kg/injection, schedule: Q04DX002 (ip), vehicle: gum acacia): 94 % of control
- T/C (dose: 25.0 mg/kg/injection, schedule: Q04DX002 (ip), vehicle: gum acacia): 116 % of control
- T/C (dose: 50.0 mg/kg/injection, schedule: Q04DX002 (ip), vehicle: gum acacia): 108 % of control

Compound: C/C(=N/O)c1ccc(O)cc1
- T/C (dose: 100.0 mg/kg/injection, schedule: Q01DX009 (ip), vehicle: saline with Tween-80): 103 % of control
- T/C (dose: 200.0 mg/kg/injection, schedule: Q01DX009 (ip), vehicle: saline with Tween-80): 96 % of control
- T/C (dose: 400.0 mg/kg/injection, schedule: Q01DX009 (ip), vehicle: saline with Tween-80): 97 % of control
